According to patent publication US12404232B2, “Compounds and compositions for intracellular delivery of therapeutic agents” (ModernaTX, Inc., priority 2015, dated 2025):

What was measured:
[1] = Particle size and polydispersity index of nanoparticle compositions (Zetasizer Nano ZS); format: physicochemical
Method in brief: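 Formulations at 50:10:38.5:1.5 mol % (ionizable lipid, DSPC, cholesterol, PEG-DMG) encapsulating Luc or hEPO mRNA were measured in 1×PBS on a Zetasizer Nano ZS to give size and polydispersity index.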

rats [2] = assay: Residual lipid levels in liver and spleen of rats (UPLC-MS quantification); format: in vivo, rat; settings: for % Lipid Remaining in liver, 48 h* 2 mpk: assuming 300 g rat and 15 g liver; for Lipid level in liver / Lipid level in spleen: rat, i.v., 0.2 mpk
Method: At 48 h liver tissue was harvested for lipid quantification. To pre-weighed tissues, Milli-Q water was added (900 μL water per 100 mg tissue). Tissues were homogenized using an Omni probe homogenizer until uniform. 50 μL of samples and matrix calibration standards were aliquoted into a 96-well plate. 50 μL of blank matrix for matrix blanks and control blanks were aliquoted. 400 μL IS spiking solution were manually added to all samples except matrix blanks. 400 μL of 50:50 ACN:IPA were manually added to matrix blanks. The plate was covered and the samples vortexed and centrifuged for 5 minutes at >3000 rpm. 200 μL of the samples were transferred into a clean 96-well plate for analysis. Samples were analyzed on a Waters Acquity UPLC using a Higgins Analytical Clipeus C8 column ([…], 30×2.1 mm) and a gradient of either 70-95% or 60-95% (Mobile Phase A: 5 mM ammonium formate in 50:50:1 H2O:MeOH:formic acid; Mobile Phase B: 5 mM ammonium formate in 100:1 MeOH:formic acid) over 1.3 min at 1.2 mL/min (column temperature 55° C.). Detection was based on electrospray ionization (ESI) in positive mode using a Sciex API5500 Mass Spectrometer.
(§1) The expression of hEPO in rats intravenously administered a nanoparticle composition at a dose of 0.2 mpk or 2.0 mpk was measured at 6 hours. Table 16 summarize the ratio of hEPO expression levels using various nanoparticle compositions as compared to the hEPO expression level using MC3 formulation and the lipid levels in the liver measured 48 hours after administration, as described above. Tables 17 and 18 summarize the lipid levels in the liver and spleen measured 48 hours after administration of Compounds 28, 33, 53, and 54. Liver and spleen levels represent the average values calculated for 3 rats in each group. As is shown in Tables 17 and 18, less than 10% of Compounds 28, 33, 53, and 54 remained in the liver after 48 hours, while greater than 60% of MC3 remained.
(§2) Table 19 summarizes the hEPO expression, IP-10 induction, liver and spleen levels, and alanine aminotransferase (ALT) and aspartate aminotransferase (AST) measured upon intravenous administration of formulations including Compounds 48, 49, and 50 to rat at 0.2 and 2 mpk and hEPO mRNA. hEPO concentrations were measured 6 hours after administration, while cytokine induction and liver and spleen levels were measured 48 hours after administration. hEPO and IP-10 concentrations are presented in pg/ml, while liver levels are provided in ng/g. ALT and AST levels are presented in international units.
(§3) The expression of hEPO induced by intravenous administration to rats of nanoparticle compositions at various doses was measured at 2, 4, 6, 8, 24, and 48 hour time points. FIGS. 3-6 respectively summarize the hEPO expression measured upon intravenous administration of formulations including Compounds 26, 18, 25, and MC3 to rat at various doses. The lipid levels of Compound 26 in the liver after 48 hours were about 19%.
(§4) The expression of hEPO and lipid levels in the liver and spleen in rats intravenously administered a nanoparticle composition at a dose of 0.2 mpk was measured at various timepoints. Compounds 18 and 25 were selected for comparison with MC3. Lipids were formulated according to the standard MC3 formulation described above. Rats were administered intravenously a single 0.2 mpk dose and expression monitored at 0.25, 0.5, 1, 2, 4, 8, 24, and 48 hours after administration.

rats [3] = assay: hEPO expression in rats after intravenous administration; format: in vivo, rat; settings: for hEPO expression: rat
Method: The expression of hEPO and cytokine induction in rats intravenously administered a nanoparticle composition at a dose of 2.0 mpk was measured at 6 h.
as §1, §2, §3
as §4, with “administration. […]” for “administration.”

[4] = hEPO mRNA, lipid:DSPC:Chol:PEG-DMG (50:10:38.5:1.5) (Table 10)
[5] = nanoparticle composition lipid:DSPC:cholesterol:PEG-DMG 50:10:38.5:1.5 mol %, mRNA encoding Luc or hEPO (Table 1A)

Row | SMILES | Size (nm) [1, 4] | Size (nm) [1, 5] | % Lipid Remaining in liver, 48 h* 2 mpk (rats [2]; rats, 48 h) | hEPO expression (rats [3]; i.v., 0.2 mpk, 0.25 h) | hEPO expression (rats [3]; i.v., 0.2 mpk, 0.5 h) | hEPO expression (rats [3]; i.v., 0.2 mpk, 1 h) | hEPO expression (rats [3]; i.v., 0.2 mpk, 2 h) | hEPO expression (rats [3]; i.v., 0.2 mpk, 4 h) | hEPO expression (rats [3]; i.v., 0.2 mpk, 8 h) | hEPO expression (rats [3]; i.v., 0.2 mpk, 24 h) | hEPO expression (rats [3]; i.v., 0.2 mpk, 48 h) | also measured
1 | CCCCCC=CCC=CCCCCCCCCC(CCCCCCCCC=CCC=CCCCCC)OC(=O)CCCN(C)C (stereo not drawn) [MC3, heptatriaconta-6,9,28,31-tetraen-19-yl 4-(dimethylamino)butanoate, reference compound] | 73.7 nm | 79.7 nm | 87% | 0 pg/mL | 42457 pg/mL | 93720 pg/mL | 524093 pg/mL | 601307 pg/mL | 1536833 pg/mL | 703619 pg/mL | 64687 pg/mL | Size (nm) ([1]; formulated with hEPO mRNA (Table 1B)): 57.7 nm; remained in the liver after 48 hours (rats [2]; rats, intravenous, 48 hours): greater than 60%; hEPO expression (rats [3]; 6 h, 2 mpk, intravenous): 1.33e+07 pg/mL; Lipid/MC3 hEPO conc. ratio 0.2 mpk (rats [3]; rats, intravenous, 0.2 mpk, 6 hours): 1; Lipid/MC3 hEPO conc. ratio 2 mpk (rats [3]; rats, intravenous, 2 mpk, 6 hours): 1
2 | CCCCCCCCCOC(=O)CCCCCCCN(CCO)CCCCCCCC(=O)OC(CCCCCCCC)CCCCCCCC [Compound 18, Heptadecan-9-yl 8-((2-hydroxyethyl)(8-(nonyloxy)-8-oxooctyl)amino)octanoate] | 78.6 nm | 86.2 nm | 0.018% | 20227 pg/mL | 20743 pg/mL | 194353 pg/mL | 238107 pg/mL | 514807 pg/mL | 915320 pg/mL | 412051 pg/mL | 52361 pg/mL | Diameter (nm) ([1]; mRNA encoding anti-HA antibody (Table 33)): 76.8 nm; PDI ([1]; nanoparticle composition 50:10:38.5:1.5 mol % (Table 1A)): 0.042; Lipid level in liver (rats [2]; 0.25 h): 5374 ng/g; Lipid level in spleen (rats [2]; 0.25 h): 1230 ng/g; Lipid level in liver (rats [2]; 0.5 h): 6023 ng/g; Lipid level in spleen (rats [2]; 0.5 h): 2017 ng/g; Lipid level in liver (rats [2]; 1 h): 6053 ng/g; Lipid level in spleen (rats [2]; 1 h): 3213 ng/g; Lipid level in liver (rats [2]; 2 h): 2037 ng/g; Lipid level in spleen (rats [2]; 2 h): 3070 ng/g; Lipid level in liver (rats [2]; 4 h): 839 ng/g; Lipid level in spleen (rats [2]; 4 h): 3770 ng/g; Lipid level in liver (rats [2]; 8 h): 296 ng/g; Lipid level in spleen (rats [2]; 8 h): 1345 ng/g; Lipid level in liver (rats [2]; 24 h): 5 ng/g; Lipid level in spleen (rats [2]; 24 h): 271 ng/g; Lipid level in liver (rats [2]; 48 h): 5374 ng/g; Lipid level in spleen (rats [2]; 48 h): 92 ng/g
3 | CCCCCCCCCCCOC(=O)CCCCCN(CCO)CCCCCCCC(=O)OC(CCCCCCCC)CCCCCCCC [Compound 25, Heptadecan-9-yl 8-((2-hydroxyethyl)(6-oxo-6-(undecyloxy)hexyl)amino)octanoate] | – | – | 1.32% | 0 pg/mL | 19553 pg/mL | 434299 pg/mL | 2042807 pg/mL | 3176560 pg/mL | 2631633 pg/mL | 869374 pg/mL | 103089 pg/mL | –
